# Test system: Echinochloa crus-galli
# Assay: Test Example 1: herbicidal effect test by treatment of rice paddy soil (immediately after seeding)
# Type: in vivo
# Settings: 120 g/10a active ingredient, dry weight vs untreated area, 14 days after treatment
# Summary of the method: (§1)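 Pre-emergence paddy water application, 120 g a.i./10 ares, applied immediately post-seeding into ~3 cm flood; glasshouse; duplicate pots; dry weight at 14 d → % inhibition = (1 − treated/untreated) × 100.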
row,SMILES,Herbicidal rate (%) Echinochloa crus-galli [%]
1,COC(=O)N(c1ccccc1Cc1c(C)n(C(C)c2ccccc2)oc1=O)S(=O)(=O)C(F)(F)F (stereo not drawn) [Compound 1-598],90
2,CCCCC(c1ccccc1)n1oc(=O)c(Cc2ccccc2N(S(=O)(=O)C(F)(F)F)S(=O)(=O)C(F)(F)F)c1C (stereo not drawn) [Compound 1-1041],100
3,CCC(=O)N(c1ccccc1Cc1c(C)n(C(C)CC)oc1=O)S(=O)(=O)C(F)(F)F (stereo not drawn) [Compound 1-316],90

# Test system: Scirpus juncoides
# Assay: as above
# Type: in vivo
# Settings: 120 g/10a active ingredient, dry weight vs untreated area, 14 days after treatment
# Summary of the method: as §1
row,SMILES,Herbicidal rate (%) Scirpus juncoides [%]
1,COC(=O)N(c1ccccc1Cc1c(C)n(C(C)c2ccccc2)oc1=O)S(=O)(=O)C(F)(F)F (stereo not drawn) [Compound 1-598],90
2,CCCCC(c1ccccc1)n1oc(=O)c(Cc2ccccc2N(S(=O)(=O)C(F)(F)F)S(=O)(=O)C(F)(F)F)c1C (stereo not drawn) [Compound 1-1041],90
3,CCC(=O)N(c1ccccc1Cc1c(C)n(C(C)CC)oc1=O)S(=O)(=O)C(F)(F)F (stereo not drawn) [Compound 1-316],90

# Test system: broad leaf weeds (Lindernia pyxidaria and Monochoria vaginalis)
# Assay: as above
# Type: in vivo
# Settings: Lindernia pyxidaria, 120 g/10a active ingredient, dry weight vs untreated area, 14 days after treatment
# Summary of the method: as §1
row,SMILES,Herbicidal rate (%) Lindernia pyxidaria [%]
1,COC(=O)N(c1ccccc1Cc1c(C)n(C(C)c2ccccc2)oc1=O)S(=O)(=O)C(F)(F)F (stereo not drawn) [Compound 1-598],90
2,CCCCC(c1ccccc1)n1oc(=O)c(Cc2ccccc2N(S(=O)(=O)C(F)(F)F)S(=O)(=O)C(F)(F)F)c1C (stereo not drawn) [Compound 1-1041],90
3,CCC(=O)N(c1ccccc1Cc1c(C)n(C(C)CC)oc1=O)S(=O)(=O)C(F)(F)F (stereo not drawn) [Compound 1-316],90

# Same assay, conditions: Monochoria vaginalis, 120 g/10a active ingredient, dry weight vs untreated area, 14 days after treatment
row,SMILES,Herbicidal rate (%) Monochoria vaginalis [%]
1,COC(=O)N(c1ccccc1Cc1c(C)n(C(C)c2ccccc2)oc1=O)S(=O)(=O)C(F)(F)F (stereo not drawn) [Compound 1-598],90
2,CCCCC(c1ccccc1)n1oc(=O)c(Cc2ccccc2N(S(=O)(=O)C(F)(F)F)S(=O)(=O)C(F)(F)F)c1C (stereo not drawn) [Compound 1-1041],90
3,CCC(=O)N(c1ccccc1Cc1c(C)n(C(C)CC)oc1=O)S(=O)(=O)C(F)(F)F (stereo not drawn) [Compound 1-316],90

# Test system: Echinochloa crus-galli
# Assay: Test Example 2: herbicidal effect test by treatment during growing period in paddy rice cultivation (seven days after seeding)
# Type: in vivo
# Settings: 120 g/10a active ingredient, assessed 14 days after treatment, dry weight vs untreated area
# Summary of the method: (§2)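 Herbicidal rate = (1 − treated/untreated mean dry weight) × 100, scored 14 days after application, two replicates per rate. Treatment: diluted emulsion dropped onto paddy water seven days after sowing, 120 g active ingredient per 10 ares, in a glass greenhouse.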
row,SMILES,Herbicidal rate (%) Echinochloa crus-galli [%]
1,COC(=O)N(c1ccccc1Cc1c(C)n(C(C)c2ccccc2)oc1=O)S(=O)(=O)C(F)(F)F (stereo not drawn) [Compound 1-598],90
2,CCCCC(c1ccccc1)n1oc(=O)c(Cc2ccccc2N(S(=O)(=O)C(F)(F)F)S(=O)(=O)C(F)(F)F)c1C (stereo not drawn) [Compound 1-1041],90
3,CCC(=O)N(c1ccccc1Cc1c(C)n(C(C)CC)oc1=O)S(=O)(=O)C(F)(F)F (stereo not drawn) [Compound 1-316],90

# Test system: Scirpus juncoides
# Assay: as above
# Type: in vivo
# Settings: 120 g/10a active ingredient, assessed 14 days after treatment, dry weight vs untreated area
# Summary of the method: as §2
row,SMILES,Herbicidal rate (%) Scirpus juncoides [%]
1,COC(=O)N(c1ccccc1Cc1c(C)n(C(C)c2ccccc2)oc1=O)S(=O)(=O)C(F)(F)F (stereo not drawn) [Compound 1-598],90
2,CCCCC(c1ccccc1)n1oc(=O)c(Cc2ccccc2N(S(=O)(=O)C(F)(F)F)S(=O)(=O)C(F)(F)F)c1C (stereo not drawn) [Compound 1-1041],70
3,CCC(=O)N(c1ccccc1Cc1c(C)n(C(C)CC)oc1=O)S(=O)(=O)C(F)(F)F (stereo not drawn) [Compound 1-316],90

# Test system: broad leaf weeds (Lindernia pyxidaria and Monochoria vaginalis)
# Assay: as above
# Type: in vivo
# Settings: Lindernia pyxidaria, 120 g/10a active ingredient, assessed 14 days after treatment, dry weight vs untreated area
# Summary of the method: as §2
row,SMILES,Herbicidal rate (%) Lindernia pyxidaria [%]
1,COC(=O)N(c1ccccc1Cc1c(C)n(C(C)c2ccccc2)oc1=O)S(=O)(=O)C(F)(F)F (stereo not drawn) [Compound 1-598],90
2,CCCCC(c1ccccc1)n1oc(=O)c(Cc2ccccc2N(S(=O)(=O)C(F)(F)F)S(=O)(=O)C(F)(F)F)c1C (stereo not drawn) [Compound 1-1041],70
3,CCC(=O)N(c1ccccc1Cc1c(C)n(C(C)CC)oc1=O)S(=O)(=O)C(F)(F)F (stereo not drawn) [Compound 1-316],90

# Same assay, conditions: Monochoria vaginalis, 120 g/10a active ingredient, assessed 14 days after treatment, dry weight vs untreated area
row,SMILES,Herbicidal rate (%) Monochoria vaginalis [%]
1,COC(=O)N(c1ccccc1Cc1c(C)n(C(C)c2ccccc2)oc1=O)S(=O)(=O)C(F)(F)F (stereo not drawn) [Compound 1-598],90
2,CCCCC(c1ccccc1)n1oc(=O)c(Cc2ccccc2N(S(=O)(=O)C(F)(F)F)S(=O)(=O)C(F)(F)F)c1C (stereo not drawn) [Compound 1-1041],70
3,CCC(=O)N(c1ccccc1Cc1c(C)n(C(C)CC)oc1=O)S(=O)(=O)C(F)(F)F (stereo not drawn) [Compound 1-316],90

# Test system: Amaranthus viridis
# Assay: Test Example 3: herbicidal effect test by treatment of dry field farming soil (one day after seeding)
# Type: in vivo
# Settings: 120 g/10a active ingredient, evaluated 14 days after treatment
# Summary of the method: (§3)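 Seeds (20 each) mixed into top 1 cm of alluvium in pots, surface pressed. One day later, diluted emulsion sprayed onto soil, 100 L/10 a, 120 g a.i./10 a. Dry weight at 14 d vs untreated gave % herbicidal rate; n=2.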
row,SMILES,"herbicidal rate, Amaranthus viridis [%]"
1,COC(=O)N(c1ccccc1Cc1c(C)n(C(C)c2ccccc2)oc1=O)S(=O)(=O)C(F)(F)F (stereo not drawn) [Compound 1-598],90
2,CCCCC(c1ccccc1)n1oc(=O)c(Cc2ccccc2N(S(=O)(=O)C(F)(F)F)S(=O)(=O)C(F)(F)F)c1C (stereo not drawn) [Compound 1-1041],50
3,CCC(=O)N(c1ccccc1Cc1c(C)n(C(C)CC)oc1=O)S(=O)(=O)C(F)(F)F (stereo not drawn) [Compound 1-316],90

# Test system: Chenopodium album
# Assay: as above
# Type: in vivo
# Settings: 120 g/10a active ingredient, evaluated 14 days after treatment
# Summary of the method: as §3
row,SMILES,"herbicidal rate, Chenopodium album [%]"
1,COC(=O)N(c1ccccc1Cc1c(C)n(C(C)c2ccccc2)oc1=O)S(=O)(=O)C(F)(F)F (stereo not drawn) [Compound 1-598],90
2,CCCCC(c1ccccc1)n1oc(=O)c(Cc2ccccc2N(S(=O)(=O)C(F)(F)F)S(=O)(=O)C(F)(F)F)c1C (stereo not drawn) [Compound 1-1041],50
3,CCC(=O)N(c1ccccc1Cc1c(C)n(C(C)CC)oc1=O)S(=O)(=O)C(F)(F)F (stereo not drawn) [Compound 1-316],90

# Test system: Echinochloa crus-galli
# Assay: as above
# Type: in vivo
# Settings: 120 g/10a active ingredient, evaluated 14 days after treatment
# Summary of the method: as §3
row,SMILES,"herbicidal rate, Echinochloa crus-galli [%]"
1,COC(=O)N(c1ccccc1Cc1c(C)n(C(C)c2ccccc2)oc1=O)S(=O)(=O)C(F)(F)F (stereo not drawn) [Compound 1-598],90
2,CCCCC(c1ccccc1)n1oc(=O)c(Cc2ccccc2N(S(=O)(=O)C(F)(F)F)S(=O)(=O)C(F)(F)F)c1C (stereo not drawn) [Compound 1-1041],70
3,CCC(=O)N(c1ccccc1Cc1c(C)n(C(C)CC)oc1=O)S(=O)(=O)C(F)(F)F (stereo not drawn) [Compound 1-316],90

# Test system: southern crabgrass
# Assay: as above
# Type: in vivo
# Settings: 120 g/10a active ingredient, evaluated 14 days after treatment
# Summary of the method: as §3
row,SMILES,"herbicidal rate, southern crabgrass [%]"
1,COC(=O)N(c1ccccc1Cc1c(C)n(C(C)c2ccccc2)oc1=O)S(=O)(=O)C(F)(F)F (stereo not drawn) [Compound 1-598],90
2,CCCCC(c1ccccc1)n1oc(=O)c(Cc2ccccc2N(S(=O)(=O)C(F)(F)F)S(=O)(=O)C(F)(F)F)c1C (stereo not drawn) [Compound 1-1041],80
3,CCC(=O)N(c1ccccc1Cc1c(C)n(C(C)CC)oc1=O)S(=O)(=O)C(F)(F)F (stereo not drawn) [Compound 1-316],90

# Test system: Amaranthus viridis
# Assay: Test Example 4: herbicidal effect test by treatment of leave and stem in dry field farming (seven days after seeding)
# Type: in vivo
# Settings: 120 g/10a active ingredient; emulsion sprayed seven days after seeding; evaluated 14 days after treatment
# Summary of the method: (§4)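 Twenty seeds per species were mixed into the top 1 cm of alluvial soil in 36 cm^2 pots; emulsions were sprayed seven days after seeding at 100 L per 10 ares (120 g active ingredient per 10 ares). Herbicidal rate (%) = {1 − treated/untreated mean dry weight} × 100, 14 days after treatment, duplicate.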
row,SMILES,"herbicidal effect (herbicidal rate), Amaranthus viridis [%]"
1,COC(=O)N(c1ccccc1Cc1c(C)n(C(C)c2ccccc2)oc1=O)S(=O)(=O)C(F)(F)F (stereo not drawn) [Compound 1-598],40
2,CCCCC(c1ccccc1)n1oc(=O)c(Cc2ccccc2N(S(=O)(=O)C(F)(F)F)S(=O)(=O)C(F)(F)F)c1C (stereo not drawn) [Compound 1-1041],60
3,CCC(=O)N(c1ccccc1Cc1c(C)n(C(C)CC)oc1=O)S(=O)(=O)C(F)(F)F (stereo not drawn) [Compound 1-316],40

# Test system: Chenopodium album
# Assay: as above
# Type: in vivo
# Settings: 120 g/10a active ingredient; emulsion sprayed seven days after seeding; evaluated 14 days after treatment
# Summary of the method: as §4
row,SMILES,"herbicidal effect (herbicidal rate), Chenopodium album [%]"
1,COC(=O)N(c1ccccc1Cc1c(C)n(C(C)c2ccccc2)oc1=O)S(=O)(=O)C(F)(F)F (stereo not drawn) [Compound 1-598],40
2,CCCCC(c1ccccc1)n1oc(=O)c(Cc2ccccc2N(S(=O)(=O)C(F)(F)F)S(=O)(=O)C(F)(F)F)c1C (stereo not drawn) [Compound 1-1041],40
3,CCC(=O)N(c1ccccc1Cc1c(C)n(C(C)CC)oc1=O)S(=O)(=O)C(F)(F)F (stereo not drawn) [Compound 1-316],40

# Test system: Echinochloa crus-galli
# Assay: as above
# Type: in vivo
# Settings: 120 g/10a active ingredient; emulsion sprayed seven days after seeding; evaluated 14 days after treatment
# Summary of the method: as §4
row,SMILES,"herbicidal effect (herbicidal rate), Echinochloa crus-galli [%]"
1,COC(=O)N(c1ccccc1Cc1c(C)n(C(C)c2ccccc2)oc1=O)S(=O)(=O)C(F)(F)F (stereo not drawn) [Compound 1-598],90
2,CCCCC(c1ccccc1)n1oc(=O)c(Cc2ccccc2N(S(=O)(=O)C(F)(F)F)S(=O)(=O)C(F)(F)F)c1C (stereo not drawn) [Compound 1-1041],40
3,CCC(=O)N(c1ccccc1Cc1c(C)n(C(C)CC)oc1=O)S(=O)(=O)C(F)(F)F (stereo not drawn) [Compound 1-316],90

# Test system: southern crabgrass
# Assay: as above
# Type: in vivo
# Settings: 120 g/10a active ingredient; emulsion sprayed seven days after seeding; evaluated 14 days after treatment
# Summary of the method: as §4
row,SMILES,"herbicidal effect (herbicidal rate), southern crabgrass [%]"
1,COC(=O)N(c1ccccc1Cc1c(C)n(C(C)c2ccccc2)oc1=O)S(=O)(=O)C(F)(F)F (stereo not drawn) [Compound 1-598],90
2,CCCCC(c1ccccc1)n1oc(=O)c(Cc2ccccc2N(S(=O)(=O)C(F)(F)F)S(=O)(=O)C(F)(F)F)c1C (stereo not drawn) [Compound 1-1041],50
3,CCC(=O)N(c1ccccc1Cc1c(C)n(C(C)CC)oc1=O)S(=O)(=O)C(F)(F)F (stereo not drawn) [Compound 1-316],90

# From patent publication US11109593B2, “Isoxazolin-5-one derivative and herbicide containing same as active ingredient” (HOKKO CHEMICAL INDUSTRY CO., LTD., priority 2017, dated 2021)
